Entries after “also recorded” stand apart in the source; their conditions may differ.
Assay: pH dependent solubility of drug or wax

## COc1cc(Cc2cnc(N)nc2N)cc(OC)c1OC [trimethoprim]
  solubility: more soluble at acidic pH values; also recorded: the solubility of the two drugs is pH dependent

From patent US5672358A (priority 1995, dated 1997)
